Assay results reported in patent US9365830B2, “Agents and methods for inhibiting human pluripotent stem cell growth” (VIACYTE, INC., priority 2010, dated 2016).
Like-named read-outs stand apart in the source and are kept apart here.

Key:
Type in all cases: cell-based, human
hESCs = assay: Secondary screen, lowest effective dose on hESCs; settings: lowest concentration that elicited cytotoxicity, range 0.1 to 50 μM, read-out: ED hESC (lowest effective dose)
Procedure: To expand the number of potential candidate hESC cytotoxic and inhibitory compounds, the complete LOPAC1280™ collection (containing 1,280 compounds) was screened. In the primary screen, cytotoxicity was tested on undifferentiated hESCs (about 3×10^4 BG01 cells) in 16 standard 96-well trays, in DC-HAIF defined medium on growth factor-reduced MATRIGEL™ diluted 1:200, which were fed daily (FIG. 7A). 10 μM of each compound was added to the hESCs one day after plating, and the cells were cultured for an additional 2 days. Plates were then fixed and stained for alkaline phosphatase (AP) to identify relative decreases in proliferation or growth of hESCs (as reduced AP staining), indicative of lower proportions of hESCs. See the circled wells in FIG. 7A.
(§1) Using a range of different concentrations from 0.1 to 50 μM, the forty compounds in Table 6 were re-screened (secondary screen) using hESCS and NPCs. The effective dose (ED) was defined as the lowest concentration of a compound that elicited cytotoxicity during the secondary screen. […] The darker wells were indicative of the increased numbers or percentages of proliferating or growing pluripotent stem cells in the wells. In addition, these 40 compounds were screened on differentiating definitive endoderm (DE) cell cultures in 96-well plate impedance assays (described above) to determine which of these compounds were not cytotoxic to definitive endoderm cells at the lowest effective dose on either hESC or NPC. […] See “ACEA DE” column in Table 6.

NPCs = assay: Secondary screen, lowest effective dose on NPCs; settings: lowest concentration that elicited cytotoxicity, range 0.1 to 50 μM, read-out: ED NPC (lowest effective dose)
Procedure: In addition, the complete LOPAC1280™ collection was also screened for effects on neural progenitor cells (NPCs) that were derived from the hESCs. Neural progenitors were plated in serum-free MedII conditioned medium at 6×10^4 cells/well and fed daily. Two days after plating, 10 μM of each compound was added and the cells were cultured for an additional 2 days. […] Reduced crystal violet staining was indicative of lower proportions of NPCs. See circled wells in FIG. 7B. The left and right columns of the LOPAC1280™ plates from which the compounds were dispensed were empty and served as untreated controls. […] See Table 6 below listing the name and class of activity of each candidate compound identified in this screen (except chelerythrine chloride, which is listed in Table 5). ChCl was not included in the subsequent round of screening. Therefore only 40 compounds were tested further.
as §1

[1] = tested on: differentiating definitive endoderm (DE) cell cultures; assay: 96-well plate impedance assay (ACEA) on differentiating definitive endoderm at lowest effective dose; design: key: Viable: Compounds that did not appear to be cytotoxic toward differentiating DE cultures were marked as “viable”, meaning that the compound did not affect the survival, growth, proliferation or differentiation of the differentiated cells; settings: at the lowest effective dose on either hESC or NPC
From the text: The impedance assay on the hESCs using the compounds in Table 4 above gave greater than twenty (20) hits. However, the ideal candidate compound of the present invention should not only be inhibitory or cytotoxic to human pluripotent stem cells, such as hESCs or hIPSCs, but should at the same time have no effect on cell viability of differentiated or differentiating cell populations including Stage 1, 2, 3, 4 and 5 type cells cultures (definitive endoderm, foregut endoderm, posterior foregut, pancreatic endoderm and endocrine cells, respectively). […] Approximately 3×10^4 hES cells were plated per well and grown for 24 hrs in DC-HAIF defined medium (i.e. StemPro® hESC SFM medium (Life Technologies, Carlsbad, Calif.). Stage 1 or definitive endoderm differentiation was then induced by changing the medium and culturing in RPMI, 100 ng/mL Activin A, and 10 ng/mL of FGF2. […] of GSK-3 beta Inhibitor 15 (Calbiochem #361558) as added to the culture for the first 24 hours of differentiation only. 10 μM of each of the candidate compounds were added about 48 hours or 2 days after differentiation was induced (see FIGS. 3 C & D, large arrowhead), and the cells were cultured for an additional 2 days.
as §1

[2] = tested on: adherent Stage 1 cell cultures of BG02; assay: Q-PCR marker gene expression, adherent Stage 1 cultures of BG02; settings: for SOX17 gene expression: end of Stage 1, compared to DMSO control (FIG. 4D); for OCT4 and NANOG gene expression: end of Stage 1, compared to DMSO control (FIGS. 4A, 4B); for FOXA2 (HNF3β) expression: end of Stage 1, compared to DMSO control (FIG. 4C)
From the text: FIGS. 4A-4G are bar graphs showing the relative gene expression levels of OCT4 (FIG. 4A), NANOG (FIG. 4B), FOXA2 (FIG. 4C), SOX17 (FIG. 4D), SOX7 (FIG. 4E), PAX6 (FIG. 4F) and ZIC1 (FIG. 4G) BG02 with treatment of candidate selective cytotoxic agents from the LOPAC1280™ sublibrary (Table 4) to adherent Stage 1 cell cultures of BG02. Expression levels were normalized using the geometric mean of three housekeeping genes, GUSB, CYCG and TBP. The graphs depict fold regulation compared to the hESC sample. The large arrow heads indicate time of the drug treatment. D=DMSO (control); C=Chelerythrine Chloride; A=AG490; B=BTO-1; De=Dephostatin; S=SU6656.
Screen for Effects on Stages 1-5 Differentiation. To further determine whether these 5 candidate compounds added at Stage 1 affected other differentiated cell types (e.g. Stages 2-5: foregut endoderm, posterior foregut endoderm, pancreatic endoderm and endocrine precursor cells, respectively), hES were differentiated in the presence or absence of compounds, and RNA samples were taken at various stages for gene expression analysis by Q-PCR.
Gene expression levels were plotted relative to a DMSO treated control at the end of Stage 1 (FIG. 4), and relative to undifferentiated hESC aggregates (FIGS. 5 and 6). See “Control” in FIGS. 4, 5 & 6. […] Chelerythrine chloride, Dephostatin, SU 6656 and Tyrphostin AG 490 compounds each caused an increase in SOX17 gene expression as compared to the DMSO control, consistent with the gene expression profile for Stage 1 definitive endoderm cell cultures (FIG. 4D). However, Tyrphostin AG 490 (AG) and SU 6656 (SU) each caused a decrease in FOXA2 (HNF3β) expression as compared to the DMSO control, indicating adverse effects of these two compounds on definitive endoderm (FIG. 4C). Yet none of the compounds appeared to substantially impact expression of non-definitive endoderm markers including SOX7, PAX6 or ZIC1 (FIGS. 4 E, 4F & 4G), and were not, therefore, excluded on the basis of inducing differentiation to other cell types. […] This compound neither decreased OCT4 or NANOG expression, nor increased FOXA2 (HNF3β) or SOX17 expression, as would have been expected of a pluripotent stem cell-selective inhibitor/cytotoxic agent.

Molecule | minimal effective concentration (hESCs) | minimal effective concentration (NPCs) | ACEA DE [1] | SOX17 gene expression [2] | OCT4 and NANOG gene expression [2] | FOXA2 (HNF3β) expression [2] | minimal effective concentration (hESCs; Homo sapiens) | minimal effective concentration (NPCs; Homo sapiens, 48 h)
22, 23-dihydroavermectin B1a+22,23-dihydroavermectin B1b [Ivermectin] | 5 µM | >50 µM | Viable |  |  |  |  | 
CN(N=O)c1cc(O)ccc1O [Dephostatin] |  |  |  | increase | subtle relative decrease |  |  | 
CN(C)S(=O)(=O)c1ccc2c(c1)/C(=C/c1cc3c([nH]1)CCCC3)C(=O)N2 [SU 6656] |  |  | Viable | increase | subtle relative decrease | decrease | 25 µM | > 50 µM
N#C/C(=C\c1ccc(O)c(O)c1)C(=O)NCc1ccccc1 [Tyrphostin AG 490] | 25 µM | 10 µM | Viable | increase | subtle relative decrease | decrease |  | 
